Values of other authors, collected in patent US4801577A, “Nonapeptide and decapeptide analogs of LHRH useful as LHRH antagonists” (Syntex (U.S.A.) Inc., priority 1987, dated 1989).

Tested on: rat mast cells
Conditions: rat mast cells in vitro

Substance | ED50 for histamine release
(N-Ac-D-Nal(2)^1, D-pCl-Phe^2, D-Trp^3, Arg^5, D-Tyr^6, D-Ala^10)LHRH | 2 µg/mL
(N-Ac-D-Nal(2)^1, D-pCl-Phe^2, D-Trp^3, D-Arg^6)LHRH | 0.2 µg/mL
(N-Ac-D-Nal(2)^1, D-αMe-pCl-Phe^2, D-Pal(3)^3, D-Arg^6, hArg(Et2)^8, D-Ala^10)LHRH | 4.9 µg/mL
(N-Ac-D-Nal(2)^1, pCl-Phe^2, D-Trp^3, D-Lys(iPr)^8,Lys(iPr)^6, D-Ala^10)LHRH | 6.6 µg/mL
LHRH: natural releasing hormone LHRH, a decapeptide comprised of naturally occurring amino acids | 328 µg/mL
